Columns and labels:
[1] = system: OCI-LY19; assay: Combination of EPZ-6438 and other therapeutic agents (4+3 model), OCI-LY19; conditions: 4+3 model; for combination effect with EPZ-6438, OCI-LY19: WT EZH2 GCB
[2] = system: Toledo; conditions: Table 3; 4+3 model
[3] = system: SU-DHL-6; assay: Combination of EPZ-6438 and other therapeutic agents (4+3 model), SU-DHL-6; conditions: for combination effect with EPZ-6438, SU-DHL-6: Mutant EZH2 GCB; for combination effect with EPZ-6438, SU-DHL-6 (mutant EZH2 GC): Table 3
[4] = system: WSU-DLCL2; assay: Combination of EPZ-6438 and other therapeutic agents (4+3 model), WSU-DLCL2; conditions: for combination effect with EPZ-6438, WSU-DLCL2: Mutant EZH2 GCB, EPZ-6438 4 days then co-treatment 3 days (4+3 model); for combination effect with EPZ-6438, WSU-DLCL2 (mutant EZH2 GC): Table 3, 4+3 model
[5] = system: TMD8; assay: Combination of EPZ-6438 and other therapeutic agents (4+3 model), TMD8; conditions: WT EXH2 ABC
[6] = system: DOHH2; assay: Combination of EPZ-6438 and other therapeutic agents (4+3 model), DOHH2; type: cell-based; conditions: for combination effect with EPZ-6438, DOHH2: WT EZH2 GCB; for combination effect with EPZ-6438, DOHH2 (WT EZH2 GC): Table 3
[7] = system: SUDHL2; assay: Combination of EPZ-6438 and other therapeutic agents (4+3 model), SUDHL2; conditions: WT EXH2 ABC
[8] = system: KARPAS-422; assay: Combination of EPZ-6438 and other therapeutic agents (4+3 model), KARPAS-422; conditions: Mutant EZH2 GCB
[9] = system: SU-DHL-10; assay: Combination of EPZ-6438 and other therapeutic agents (4+3 model), SU-DHL-10; conditions: for combination effect with EPZ-6438, SU-DHL-10: Mutant EZH2 GCB; for combination effect with EPZ-6438, SU-DHL-10 (mutant EZH2 GC): Table 3
[10] = system: RC-K8; assay: Combination of EPZ-6438 and other therapeutic agents (4+3 model), RC-K8; conditions: WT EXH2 ABC
[11] = system: OCI-LY3; assay: Combination of EPZ-6438 and other therapeutic agents (4+3 model), OCI-LY3; conditions: WT EXH2 ABC
[12] = system: OCI-LY7; assay: Combination of EPZ-6438 and other therapeutic agents (4+3 model), OCI-LY7; conditions: WT EZH2 GCB
[13] = system: Farage; assay: Combination of EPZ-6438 and other therapeutic agents (4+3 model), Farage; conditions: WT EZH2 GCB
[14] = system: SUDHL5; assay: Combination of EPZ-6438 and other therapeutic agents (4+3 model), SUDHL5; conditions: for combination effect with EPZ-6438, SUDHL5: WT EZH2 GCB
[15] = system: HT; assay: Combination of EPZ-6438 and other therapeutic agents (4+3 model), HT; conditions: WT EZH2 GCB

Row | Structure (SMILES) | combination effect with EPZ-6438, OCI-LY19 [1] | combination effect with EPZ-6438, Toledo (WT EZH2 ABC) [2] | combination effect with EPZ-6438, SU-DHL-6 [3] | combination effect with EPZ-6438, WSU-DLCL2 [4] | combination effect with EPZ-6438, TMD8 [5] | combination effect with EPZ-6438, SUDHL2 [7] | combination effect with EPZ-6438, KARPAS-422 [8] | combination effect with EPZ-6438, SU-DHL-10 [9] | combination effect with EPZ-6438, RC-K8 [10] | combination effect with EPZ-6438, OCI-LY3 [11] | combination effect with EPZ-6438, OCI-LY7 [12] | combination effect with EPZ-6438, Farage [13] | combination effect with EPZ-6438, SUDHL5 [14] | combination effect with EPZ-6438, SU-DHL-6 (mutant EZH2 GC) [3] | combination effect with EPZ-6438, WSU-DLCL2 (mutant EZH2 GC) [4] | combination effect with EPZ-6438, DOHH2 (WT EZH2 GC) [6] | combination effect with EPZ-6438, SU-DHL-10 (mutant EZH2 GC) [9] | combination effect with EPZ-6438, HT [15] | further results
1 | C[C@@H]1C[C@H]2[C@@H]3CCC4=CC(=O)C=C[C@]4(C)[C@@]3(F)[C@@H](O)C[C@]2(C)[C@@]1(O)C(=O)CO [Dexamethasone] | S | No effect | S | S | S | S | S | S | S | S | S | S | S | – | – | – | – | – | combination effect with EPZ-6438, DOHH2 [6]: S
2 | COc1cccc2c1C(=O)c1c(O)c3c(c(O)c1C2=O)C[C@@](O)(C(=O)CO)C[C@@H]3O[C@H]1C[C@H](N)[C@H](O)[C@H](C)O1 [Doxorubicin] | – | No effect | – | – | – | – | – | – | – | – | – | – | – | Additive | Synergy | No effect | Additive | – | –
3 | CO[C@H]1C[C@@H]2CC[C@@H](C)[C@@](O)(O2)C(=O)C(=O)N2CCCC[C@H]2C(=O)O[C@H]([C@H](C)C[C@@H]2CC[C@@H](OCCO)[C@H](OC)C2)CC(=O)[C@H](C)/C=C(\C)[C@@H](O)[C@@H](OC)C(=O)[C@H](C)C[C@H](C)/C=C/C=C/C=C/1C [Everolimus] | – | – | S | S | S | S | ADD. | S | S | S | S | S | S | – | – | – | – | S | –
4 | C=CC(=O)N1CCC[C@@H](n2nc(-c3ccc(Oc4ccccc4)cc3)c3c(N)ncnc32)C1 [Ibrutinib] | – | – | S | S | S | ADD. | S | S | ADD. | ADD. | S | S | S | – | – | – | – | S | –
5 | NC1(c2ccc(-c3nc4ccn5c(=O)[nH]nc5c4cc3-c3ccccc3)cc2)CCC1 [MK-2206] | S | – | S | S | S | – | S | S | S | S | S | S | S | – | – | – | – | S | –
6 | C[C@]12C=CC(=O)C=C1CC[C@@H]1[C@@H]2[C@@H](O)C[C@@]2(C)[C@H]1CC[C@]2(O)C(=O)CO [Prednisolone] | S | No effect | S | S | S | S | S | S | S | S | S | S | S | Synergy | Synergy | Synergy | Synergy | – | combination effect with EPZ-6438, OCI-LY-19 (WT EZH2 GC) ([1]; Table 3): Synergy; combination effect with EPZ-6438, DOHH2 [6]: S; combination effect with EPZ-6438, SU-DHL-5 (WT EZH2 GC) ([14]; Table 3): Synergy
7 | COc1cc(Nc2ncc(F)c(Nc3ccc4c(n3)NC(=O)C(C)(C)O4)n2)cc(OC)c1OC [Tamatinib] | – | – | S | S | S | S | S | S | – | S | S | S | S | – | – | – | – | S | –
8 | CC[C@]1(O)C[C@H]2CN(CCc3c([nH]c4ccccc34)[C@@](C(=O)OC)(c3cc4c(cc3OC)N(C=O)[C@H]3[C@@](O)(C(=O)OC)[C@H](OC(C)=O)[C@]5(CC)C=CCN6CC[C@]43[C@@H]65)C2)C1 [Vincristine] | – | No effect | – | – | – | – | – | – | – | – | – | – | – | Additive | Additive | No effect | Additive | – | –
